The nature of data set [1]: Exposed Polar Surface Area (EPSA). The class given is physicochemical. Particulars: SFC on Chirex 3014 column; sample 1 mM DMSO stock; read-out: EPSA. Summed up: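 EPSA, in Å^2, is read from SFC retention time through a linear relationship established with eight calibration standards. Separation uses a Chirex 3014 stationary phase, 35 °C, 14 MPa back pressure, and a 5–60% methanol/ammonium formate modifier gradient in CO2.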

Another data set deals with T1, IL-23R (Homo sapiens, UniProt Q5VWK5).
T1 construct: host or cells: HEK293
T1 sequence (Q5VWK5 24-629): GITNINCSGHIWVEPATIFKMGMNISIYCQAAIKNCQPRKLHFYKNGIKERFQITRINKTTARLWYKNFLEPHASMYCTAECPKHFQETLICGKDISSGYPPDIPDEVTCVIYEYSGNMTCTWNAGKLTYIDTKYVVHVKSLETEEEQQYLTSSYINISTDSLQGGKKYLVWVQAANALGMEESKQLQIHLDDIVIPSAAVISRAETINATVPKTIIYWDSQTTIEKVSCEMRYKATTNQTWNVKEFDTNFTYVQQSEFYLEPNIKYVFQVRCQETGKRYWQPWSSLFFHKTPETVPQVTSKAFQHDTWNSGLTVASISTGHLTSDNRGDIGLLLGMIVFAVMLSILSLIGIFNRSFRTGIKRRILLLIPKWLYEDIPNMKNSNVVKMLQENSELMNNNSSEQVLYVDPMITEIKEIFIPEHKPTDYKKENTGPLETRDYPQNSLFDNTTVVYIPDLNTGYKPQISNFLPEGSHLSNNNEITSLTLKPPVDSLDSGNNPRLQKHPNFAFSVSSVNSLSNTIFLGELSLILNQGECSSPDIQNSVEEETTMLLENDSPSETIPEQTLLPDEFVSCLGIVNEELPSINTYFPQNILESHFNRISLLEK
Kind of data set: IL23R Reporter Assay. The class given is cell-based. Particulars: HEK293 cells containing IL-23R, IL-12RP1 and STAT-inducible firefly luciferase reporter; 10 ng/mL IL-23 (EC90); 5 h at 37° C.; read-out: IL23R Reporter Assay. In general terms: In a reporter assay the amount or activity of a reporter protein is the signal.

The record followed here is patent publication US20260022143A1, “Cyclic Peptide Inhibitors of IL-23” (JANSSEN PHARMACEUTICA NV, priority 2022, published 2026).

SMILES strings stand for the structures. Starred links: 1 amine or outer side, 2 acyl side, 3 side chain; linkers in the order of their positions; H or OH if unused. Positions of bridges follow the written chain, without caps; N, C: chain ends. Non-standard residues stand in square brackets, D forms with d. Residues, ends and D or L forms follow the SMILES beside them. Groups on a side chain read outwards from the residue. ξ: configuration not given here. *: point of attachment. X33 = C[N+](C)(C)CCCCc1cn(-c2ccc(C[C@H](N[*:1])C(=O)[*:2])cc2)nn1; Me3N+(CH2)2O(CH2)2O(CH2)2CO = C[N+](C)(C)CCOCCOCCC(=O)*; X39 = NCCc1cn(-c2ccc(C[C@H](N[*:1])C(=O)[*:2])cc2)nn1; CH2CH2OCH2CH2OCH2CH2NMe3+ = C[N+](C)(C)CCOCCOCC*; Trp(7-Me) = Cc1cccc2c(C[C@H](N)C(=O)O)c[nH]c12; d(hLys(Me3)) = C[N+](C)(C)CCCCC[C@@H](N)C(=O)O; Abu(4-yl) = O=C([C@H](CC[*:3])N[*:1])[*:2]; Hexanoyl(6-NMe3+) = C[N+](C)(C)CCCCCC(=O)*; 2Nal = N[C@@H](Cc1ccc2ccccc2c1)C(=O)O; AEF = NCCOc1ccc(C[C@H](N)C(=O)O)cc1; PEG6 = NCCOCCOCCOCCOCCOCCOCCC(=O)O; 3Pal = N[C@@H](Cc1cccnc1)C(=O)O; ξThr(3R) = C[C@@H](O)C(N)C(=O)O; Lys(Me) = CNCCCC[C@H](N)C(=O)O; Pen = CC(C)(S)[C@H](N)C(=O)O; X11 = N=C(N)NCCOCCOCCC(=O)*; αMeC = C[C@](N)(CS)C(=O)O; Thp = NC1(C(=O)O)CCOCC1; X3 = C[N+](C)(C)CCCCC*; Sar = CNCC(=O)O

On to `CC(=O)NCCCC[C@@H]1NC(=O)[C@H](Cc2c[nH]c3ccccc23)NC(=O)[C@H]([C@@H](C)O)NC(=O)[C@H](CC(N)=O)NC(=O)[C@@H](NC(=O)[C@@H](CCCNC(=N)N)NC(=O)CCOCCOCC[N+](C)(C)C)CCSC[C@@](C)(C(=O)N[C@@H](Cc2ccc(OCCCCC[N+](C)(C)C)cc2)C(=O)N[C@@H](Cc2ccc3ccccc3c2)C(=O)NC2(C(=O)N[C@@H](CCCCNC(C)=O)C(=O)N[C@@H](CC(N)=O)C(=O)N[C@@H](Cc3cccnc3)C(=O)N(C)CC(N)=O)CCOCC2)NC1=O` [compound 518, cPEG3aCO-r-Abu(1)-N-T-W-K(Ac)-aMeC(1)-TMAPF-2Nal-THP-K(Ac-N-3Pya-Sar-CONH2] ({Me3N+(CH2)2O(CH2)2O(CH2)2CO}-[dR][Abu(4-yl)]NTWK(Ac)[αMeC]Y(X3)[2Nal][Thp]K(Ac)N[3Pal][Sar]-NH2; thioether 2-7), for which the EPSA in data set [1] stood at 230 A^2. Besides, the IC50 on IL-23R is 18 nM.

As to `CC(=O)NCCCC[C@@H]1NC(=O)[C@H](Cc2c[nH]c3c(C)cccc23)NC(=O)[C@H]([C@@H](C)O)NC(=O)[C@H](CC(N)=O)NC(=O)[C@@H](NC(=O)CCOCCOCC[N+](C)(C)C)C(C)(C)SSC(C)(C)[C@@H](C(=O)N[C@@H](Cc2ccc(-n3cc(CCN)nn3)cc2)C(=O)N[C@@H](Cc2ccc3ccccc3c2)C(=O)NC2(C(=O)N[C@@H](CCCCNC(C)=O)C(=O)N[C@@H](CC(N)=O)C(=O)N[C@@H](Cc3cccnc3)C(=O)N(C)CC(N)=O)CCOCC2)NC1=O` [compound 522, cPEG3aCO-Pen(3)-N-T-7MeW-K(Ac)-Pen(3)-F(4TzlAme2)-2Nal-THP-K(Ac)-N-3Pya-Sar-CONH2] ({Me3N+(CH2)2O(CH2)2O(CH2)2CO}-[Pen]NT[Trp(7-Me)]K(Ac)[Pen][X39][2Nal][Thp]K(Ac)N[3Pal][Sar]-NH2; disulfide 1-6), the EPSA in data set [1] was found to be 176 A^2. For the same compound, on IL-23R, the IC50 was found to be 1.6 nM.

`CC(=O)N(C)CCCC[C@H](NC(=O)[C@H](C)NC(=O)[C@H](Cc1ccc2ccccc2c1)NC(=O)[C@H](Cc1ccc(OCCCCC[N+](C)(C)C)cc1)NC(=O)[C@H]1NC(=O)[C@H](CCCCN(C)C(C)=O)NC(=O)[C@H](Cc2c[nH]c3c(C)cccc23)NC(=O)C([C@@H](C)O)NC(=O)[C@H](CC(=O)N(C)C)NC(=O)[C@@H](NC(=O)CCOCCOCC[N+](C)(C)C)C(C)(C)SSC1(C)C)C(=O)N[C@@H](CC(N)=O)C(=O)N[C@@H](Cc1cccnc1)C(=O)N(C)CC(=O)N(C)C` (stereo partly drawn) [compound 488, cPEG3aCO-Pen(3)-N(N(Me)2)-T-7MeW-K(NMeAc)-Pen(3)-TMAPf-2Nal-A-K(NMeAc)-N-3Pya-Sar-CON(Me)2] ({Me3N+(CH2)2O(CH2)2O(CH2)2CO}-[Pen]D(NMe2)[ξThr(3R)][Trp(7-Me)][Lys(Me)](Ac)[Pen]Y(X3)[2Nal]A[Lys(Me)](Ac)N[3Pal][Sar]-NMe2; disulfide 1-6): the EPSA in data set [1] is 165 A^2. Moreover, the IC50 on IL-23R was found to be 5.7 nM.

Consider `CC(=O)NCCCC[C@@H]1NC(=O)[C@H](Cc2c[nH]c3c(C)cccc23)NC(=O)[C@H]([C@@H](C)O)NC(=O)[C@H](CC(N)=O)NC(=O)[C@@H](NC(=O)[C@@H](CCCCNC(=O)CCOCCOCCOCCOCCOCCOCCNC(C)=O)NC(C)=O)C(C)(C)SSC(C)(C)[C@@H](C(=O)N[C@@H](Cc2ccc(OCCN)cc2)C(=O)N[C@@H](Cc2ccc3ccccc3c2)C(=O)NC2(C(=O)N[C@@H](CCCCNC(C)=O)C(=O)N[C@@H](CC(N)=O)C(=O)N[C@@H](Cc3cccnc3)C(=O)N(C)CC(N)=O)CCOCC2)NC1=O` [compound 39] (Ac-[dK]([PEG6-Ac])[Pen]NT[Trp(7-Me)]K(Ac)[Pen][AEF][2Nal][Thp]K(Ac)N[3Pal][Sar]-NH2; disulfide 2-7 (inferred)), for which the EPSA in data set [1] stood at 158 A^2. In addition, the IC50 at IL-23R stood at 5.5 nM.

Consider `COCC[N+](C)(C)CCc1cn(C[C@H](NC(=O)[C@H]2NC(=O)[C@H](CCCCN(C)C(C)=O)NC(=O)[C@H](Cc3c[nH]c4c(C)cccc34)NC(=O)[C@H]([C@@H](C)O)NC(=O)[C@H](CC(=O)N(C)C)NC(=O)[C@@H](NC(=O)CCOCCOCC[N+](C)(C)C)C(C)(C)SSC2(C)C)C(=O)N[C@@H](Cc2ccc3ccccc3c2)C(=O)NC2(C(=O)N[C@@H](CCCCN(C)C(C)=O)C(=O)N[C@@H](CC(N)=O)C(=O)N[C@@H](Cc3cccnc3)C(=O)N(C)CC(=O)N(C)C)CCOCC2)nn1` [compound 288, cPEG3aCO-Pen(3)-N(N(Me)2)-T-7MeW-K(NMeAc)-Pen(3)-TzlChmPEG-2Nal-THP-K(NMeAc)-N-3Pya-Sar-CON(Me)2], for which the EPSA in data set [1] is 144 A^2. Moreover, the IC50 on IL-23R was 24 nM.

With `CC(=O)N[C@H](CCCCC[N+](C)(C)C)C(=O)N[C@@H]1C(=O)N[C@@H](CC(=O)N(C)C)C(=O)N[C@@H]([C@@H](C)O)C(=O)N[C@@H](Cc2c[nH]c3c(C)cccc23)C(=O)N[C@@H](CCCCN(C)C(C)=O)C(=O)N[C@H](C(=O)N[C@@H](Cc2ccc(OCCN)cc2)C(=O)N[C@@H](Cc2ccc3ccccc3c2)C(=O)NC2(C(=O)N[C@@H](CCC(=O)O)C(=O)N[C@@H](CC(N)=O)C(=O)N[C@@H](Cc3cccnc3)C(=O)N(C)CC(=O)N(C)C)CCOCC2)C(C)(C)SSC1(C)C` [compound 163, MeCO-hk(Me)3-Pen(3)-N(N(Me)2)-T-7MeW-K(NMeAc)-Pen(3)-AEF-2Nal-THP-E-N-3Pya-Sar-CON(Me)2] (Ac-[d(hLys(Me3))][Pen]D(NMe2)T[Trp(7-Me)][Lys(Me)](Ac)[Pen][AEF][2Nal][Thp]EN[3Pal][Sar]-NMe2; disulfide 2-7 (inferred)), in data set [1], the EPSA was determined as 168 A^2. In addition, the IC50 at IL-23R was 3.2 nM.

`CC(=O)NCCCC[C@@H]1NC(=O)[C@H](Cc2c[nH]c3c(C)cccc23)NC(=O)[C@H]([C@@H](C)O)NC(=O)[C@H](CC(N)=O)NC(=O)[C@@H](NC(=O)CCOCCOCC[N+](C)(C)C)C(C)(C)SSC(C)(C)[C@@H](C(=O)N[C@@H](Cc2ccc(-n3cc(CCCC[N+](C)(C)C)nn3)cc2)C(=O)N[C@@H](Cc2ccc3ccccc3c2)C(=O)NC2(C(=O)N[C@@H](CCCCNC(C)=O)C(=O)N[C@@H](CC(N)=O)C(=O)N[C@@H](Cc3cccnc3)C(=O)N(C)CC(N)=O)CCOCC2)NC1=O` [compound 424, cPEG3aCO-Pen(3)-N-T-7MeW-K(Ac)-Pen(3)-F(4TzlTMA4)-2Nal-THP-K(Ac)-N-3Pya-Sar-CONH2] ({Me3N+(CH2)2O(CH2)2O(CH2)2CO}-[Pen]NT[Trp(7-Me)]K(Ac)[Pen][X33][2Nal][Thp]K(Ac)N[3Pal][Sar]-NH2; disulfide 1-6): the EPSA in data set [1] was 165 A^2. The IC50 on IL-23R was 2.6 nM.

As to `CC(=O)N(C)CCCC[C@@H]1NC(=O)[C@H](Cc2c[nH]c3c(C)cccc23)NC(=O)[C@H]([C@@H](C)O)NC(=O)[C@H](CC(=O)N(C)C)NC(=O)[C@@H](NC(=O)CCOCCOCCNC(=N)N)C(C)(C)SSC(C)(C)[C@@H](C(=O)N[C@@H](Cc2ccc(OCCOCCOCC[N+](C)(C)C)cc2)C(=O)N[C@@H](Cc2ccc3ccccc3c2)C(=O)NC2(C(=O)N[C@@H](CCCCN(C)C(C)=O)C(=O)N[C@@H](CC(N)=O)C(=O)N[C@@H](Cc3cccnc3)C(=O)N(C)CC(=O)N(C)C)CCOCC2)NC1=O` [compound 406, cPEG3gCO-Pen(3)-N(N(Me)2)-T-7MeW-K(NMeAc)-Pen(3)-APEG3F-2Nal-THP-K(NMeAc)-N-3Pya-Sar-CON(Me)2] (X11-[Pen]D(NMe2)T[Trp(7-Me)][Lys(Me)](Ac)[Pen]Y(CH2CH2OCH2CH2OCH2CH2NMe3+)[2Nal][Thp][Lys(Me)](Ac)N[3Pal][Sar]-NMe2; disulfide 1-6), in data set [1], the EPSA was 150 A^2. The IC50 at IL-23R came out at 2.1 nM.

Turning to `Cc1cccc2c(C[C@@H]3NC(=O)[C@H]([C@@H](C)O)NC(=O)[C@H](CC(=O)N(C)C)NC(=O)[C@@H](NC(=O)CCCCC[N+](C)(C)C)C(C)(C)SSC(C)(C)[C@@H](C(=O)N[C@@H](Cc4ccc(OCCCCC[N+](C)(C)C)cc4)C(=O)N[C@@H](Cc4ccc5ccccc5c4)C(=O)NC4(C(=O)N[C@@H](CCC(=O)N(C)C)C(=O)N[C@@H](CC(N)=O)C(=O)N[C@@H](Cc5cccnc5)C(=O)N(C)CC(=O)N(C)C)CCOCC4)NC(=O)[C@H](CCC(=O)N(C)C)NC3=O)c[nH]c12` [compound 101, 5cpaCO-Pen(3)-N(N(Me)2)-T-7MeW-Q(N(Me)2)-Pen(3)-TMAPF-2Nal-THP-Q(N(Me)2)-N-3Pya-Sar-CON(Me)2] ({Hexanoyl(6-NMe3+)}-[Pen]D(NMe2)T[Trp(7-Me)]E(NMe2)[Pen]Y(X3)[2Nal][Thp]E(NMe2)N[3Pal][Sar]-NMe2; disulfide 1-6), in data set [1], the EPSA is 145 A^2. For the same compound, the IC50 on IL-23R is 5.2 nM.
